Experimental data taken from patent US20220127258A1, “AROMATIC RING OR HETEROAROMATIC RING COMPOUNDS, PREPARATION METHOD THEREFOR AND MEDICAL USE THEREOF” (The National Institutes of Pharmaceutical R&D Co., Ltd., priority 2019, published 2022).
Where two headings read alike, the source gives them in different places.

Tests used:
[1] = Plasma and liver concentration of the compound after 4 days of administration in the cholestasis rat induced by ANIT; assay type: in vivo, SD rats; settings: for concentration at 2 h / concentration at 4 h / Kp at 2 h / Kp at 4 h: SD, oral; for Kp at 2 h / Kp at 4 h: liver/plasma; for concentration at 4 h / Kp at 4 h / Liver concentration of the compound: 4 h
Procedure: Sample formulation: The compound of the present invention was added to DMSO, and dissolved completely by ultrasound. 0.5% CMC-Na was added to constant volume (DMSO: 0.5% CMC-Na=1:99), and the solution was homogenized by ultrasound for later use. After 3 to 5 days of acclimation, the animals were divided into 20 groups according to body weight: normal group, model group, Example 8 (3 mg/kg/d, 10 mg/kg/d) group, Example 11 (3 mg/kg/d, 10 mg/kg/d) group, Example 12 (3 mg/kg/d, 10 mg/kg/d) group, Example 14 (3 mg/kg/d, 10 mg/kg/d) group, Example 20 (3 mg/kg/d, 10 mg/kg/d) group, Example 22 (3 mg/kg/d, 10 mg/kg/d) group, Example 26 (3 mg/kg/d, 10 mg/kg/d) group, Example 28 (3 mg/kg/d, 10 mg/kg/d) group, and Example 29 (3 mg/kg/d, 10 mg/kg/d) group, with 10 rats for each group. Intragastric administration was conducted with an administration volume of 10 mL/kg, once a day, for a total of 4 days. On Day 2, ANIT (1-naphthyl isothiocyanate, Macklin, purity: 98%, item number: N814658, CAS number: 551-06-4, specification: 5 g/bottle, storage conditions: 2 to 8 degrees, batch number: C10116101) with a dose of 50 mg/kg and an administration volume of 5 mL/kg was administered intragastrically once to each animal (except for animals in the normal group) 4 hours after the administration. The animals were fasted on Day 4 morning. The animals were anesthetized by isoflurane inhalation using a small animal anesthesia machine. Blood was collected from the venous plexus behind the eyeball using a capillary glass tube (about 1 ml per animal), and then left to stand for about one hour. It was centrifuged at 3500 rpm for 10 minutes to obtain the serum. ALT, AST, GGT and TBA indexes as well as the plasma concentration of the compound were determined using an AU480 automatic biochemical analysis system (BECKMAN COULTER). Liver was collected, weighed, and cutted into pieces. Normal saline was added (liver weight: normal saline=1:2), and the mixture was homogenized and freezed. The concentration of the compound in liver was determined using an ultra performance liquid chromatograph (Shimadzu, LC 30AD) and triple quadrupole mass spectrometer (AB, TQ5500). The plasma concentration and liver concentration of the compound of the present invention after 4 days of administration in the cholestasis rat induced by ANIT are shown in Table 3, Table 4 and Table 5 below.

[2] = target: T1, hERG channel (Homo sapiens, UniProt Q12809); assay: Effect on hERG channel, whole-cell membrane clamp; assay type: cell-based; settings: for hERG current inhibition ratio: n=3
T1 construct: host or cells: HEK293 stably expressing hERG
T1 sequence (Q12809 whole entry): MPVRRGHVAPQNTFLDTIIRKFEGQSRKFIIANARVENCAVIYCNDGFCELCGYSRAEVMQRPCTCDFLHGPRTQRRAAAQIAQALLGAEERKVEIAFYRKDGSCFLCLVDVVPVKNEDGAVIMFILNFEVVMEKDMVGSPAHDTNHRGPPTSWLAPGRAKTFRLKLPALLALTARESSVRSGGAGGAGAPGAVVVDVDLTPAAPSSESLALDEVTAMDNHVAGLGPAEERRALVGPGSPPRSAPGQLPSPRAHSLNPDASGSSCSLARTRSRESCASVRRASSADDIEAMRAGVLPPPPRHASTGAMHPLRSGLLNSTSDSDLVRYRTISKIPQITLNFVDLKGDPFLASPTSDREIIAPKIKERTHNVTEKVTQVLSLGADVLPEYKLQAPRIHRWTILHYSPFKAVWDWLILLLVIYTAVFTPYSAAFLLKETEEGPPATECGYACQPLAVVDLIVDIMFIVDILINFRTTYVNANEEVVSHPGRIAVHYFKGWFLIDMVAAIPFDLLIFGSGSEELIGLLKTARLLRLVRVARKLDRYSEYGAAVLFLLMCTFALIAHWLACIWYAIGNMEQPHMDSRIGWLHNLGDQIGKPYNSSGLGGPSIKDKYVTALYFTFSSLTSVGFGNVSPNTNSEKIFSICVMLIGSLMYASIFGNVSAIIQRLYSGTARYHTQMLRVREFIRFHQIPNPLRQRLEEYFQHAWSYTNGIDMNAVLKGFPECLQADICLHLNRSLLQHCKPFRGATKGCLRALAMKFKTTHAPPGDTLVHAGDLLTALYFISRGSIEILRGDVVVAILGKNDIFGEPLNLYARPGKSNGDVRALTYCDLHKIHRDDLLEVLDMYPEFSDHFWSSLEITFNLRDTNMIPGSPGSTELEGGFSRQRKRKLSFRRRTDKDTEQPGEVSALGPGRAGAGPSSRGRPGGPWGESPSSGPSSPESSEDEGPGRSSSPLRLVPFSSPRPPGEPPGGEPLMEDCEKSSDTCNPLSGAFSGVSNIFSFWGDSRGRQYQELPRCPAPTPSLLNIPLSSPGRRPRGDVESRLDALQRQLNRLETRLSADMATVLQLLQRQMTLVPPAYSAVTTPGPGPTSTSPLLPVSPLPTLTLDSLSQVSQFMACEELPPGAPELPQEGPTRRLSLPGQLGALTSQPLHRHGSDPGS
Procedure: Extracellular fluid: 140 mM NaCl, 3.5 mM KCl, 1 mM MgCl2, 2 mM CaCl2, 10 mM glucose, 10 mM HEPES, 1.25 mM NaH2PO4, pH=7.4 (adjusted by NaOH).
Intracellular fluid: 20 mM KCl, 115 mM K-aspartic acid, 1 mM MgCl2, 5 mM EGTA, 10 mM HEPES, 2 mM Na2-ATP, pH=7.2 (adjusted by KOH).
The stock solution of the compound of Example 8 of the present invention (30.26 mM solution in DMSO) was successively diluted with 10 mL of extracellular fluid to obtain 0.3 μM, 1 μM, 3 μM, […], and 30 μM solutions.
The HEK293 cell line stably expressing the hERG potassium channel (supplier Creacell, catalog number A-0302) was cultured in DMEM medium containing 10% fetal bovine serum and 0.8 mg/mL G418. The culture temperature was 37° C., and the carbon dioxide concentration was 5%.
Cell passage: The old medium was removed, and the cells were washed with PBS once. 1 mL of TrypLE™ expression solution was added, and the cells were incubated at 37° C. for 0.5 minutes. When the cells detached from the bottom of the dish, 5 mL of 37° C. pre-warmed complete medium (DMEM medium containing 10% fetal bovine serum and 0.8 mg/mL G418) was added. The cell suspension was gently pipetted to separate the aggregated cells. The cell suspension was transferred to a sterile centrifuge tube, and centrifuged at 1000 rpm for 5 minutes to collect the cells. Expansion or maintenance culture, the cells were seeded in a 6 cm cell culture dish, and each cell culture dish was seeded with 2.5×10^5 cells (final volume: 5 mL). In order to maintain the electrophysiological activity of the cell, the cell density must not exceed 80%. The cells were separated by TrypLE™ expression solution, and 3×10^3 cells were placed on a cover slide and cultured in a 24-well plate (final volume: 500 μL). Membrane clamp test was carried out after 18 hours.
The voltage stimulus protocol of the whole-cell membrane clamp for recording the whole-cell hERG potassium current is as follows. When a whole-cell sealing was formed, the membrane clamp was disposed at −80 mV. The clamp voltage was depolarized from −80 mV to +30 mV for 2.5 seconds, and then quickly maintained at −50 mV for 4 seconds, which can excite the tail current of the hERG channel. −50 mV was used for leakage current detection in the test. The data was collected repeatly every 10 seconds to observe the effect of the compound on hERG tail current. The test data was collected by EPC-10 amplifier (HEKA) and stored in PatchMaster (HEKA) software.
A capillary glass tube (BF150-86-10, Sutter Instruments) was prepared into a recording electrode using a microelectrode puller (P97, Sutter Instruments). Microelectrode manipulator (MP285, Sutter Instruments) was manipulated under an inverted microscope (IX71, Olympus) to contact the recording electrode to the cell, and suction was applied under negative pressure to form a […]. After forming the […], a rapid capacitance compensation was performed, then a negative pressure was applied to break the cell membrane and create a whole-cell recording mode. A slow capacitor compensation was performed, and the membrane capacitance and series resistance were recorded without leakage compensation.
When the hERG current of the whole-cell record was stable, administration was conducted. Each concentration was tested for 5 minutes (or until the current was stable) before testing the next concentration. Multiple concentrations were tested for each test compound. The cover slide seeded with the cell was placed in a recording bath of an inverted microscope. The test compound and the compound-free extracellular fluid flowed through the recording chamber by gravity perfusion from low concentrations to high concentrations to act on the cell. Liquid exchange was performed using a vacuum pump in the record. For each cell, the current detected in the compound-free extracellular fluid was used as the control. Three cells were repeatly tested independently. All electrophysiological experiments were carried out at room temperature.

[3] = liver, 3 mg/kg/day, 3 mg/kg/d, read-out: Liver concentration of the compound
[4] = liver, 10 mg/kg/day, 10 mg/kg/d, read-out: Liver concentration of the compound
[5] = plasma, 3 mg/kg/day, 3 mg/kg/d, read-out: Plasma concentration of the compound
[6] = plasma, 10 mg/kg/day, 10 mg/kg/d, read-out: Plasma concentration of the compound

Molecule `O=C(O)c1ccc(-c2nnc(N3[C@@H]4CC[C@H]3C[C@@H](OCc3c(-c5c(Cl)cccc5Cl)noc3C3CC3)C4)o2)cc1` [Example 8, 4-(5-((1R,3r,5S)-3-((5-cyclopropyl-3-(2,6-dichlorophenyl)isoxazol-4-yl)methoxy)-8-azabicyclo[3.2.1]octan-8-yl)-1,3,4-oxadiazol-2-yl)benzoic acid] has a concentration at 2 h [1, 3] of 752 ± 419 ng/g, a concentration at 4 h [1, 3] of 1190 ± 162 ng/g and a concentration at 2 h [1, 4] of 986 ± 355 ng/g. For the same molecule, the concentration at 4 h [1, 4] was 1190 ± 265 ng/g, the Kp at 2 h ([1]; 3 mg/kg/day, 3 mg/kg/d) was 43.9 ± 65.2 and the Kp at 4 h ([1]; 3 mg/kg/day, 3 mg/kg/d) was 61 ± 107. The Kp at 2 h ([1]; 10 mg/kg/day, 10 mg/kg/d) was 54.9 ± 37, the Kp at 4 h ([1]; 10 mg/kg/day, 10 mg/kg/d) was 105 ± 48.6 and the concentration at 2 h [1, 5] was 44.6 ± 36.9 ng/mL. The concentration at 4 h [1, 5] was 130 ± 120 ng/mL, the concentration at 2 h [1, 6] was 50.4 ± 74.4 ng/mL and the concentration at 4 h [1, 6] was 16.7 ± 16.4 ng/mL. The “hERG current inhibition ratio” value ([2]; 0.3 μM, HEK293 cell line stably expressing hERG) was −2.37 ± 0.62%, the “hERG current inhibition ratio” value ([2]; 1 μM, HEK293 cell line stably expressing hERG) was −3.09 ± 0.30% and the “hERG current inhibition ratio” value ([2]; 3 μM, HEK293 cell line stably expressing hERG) was 0.48 ± 1.78%. For the same molecule, the “hERG current inhibition ratio” value ([2]; 10 μM, HEK293 cell line stably expressing hERG) was 12.65 ± 2.25%, the “hERG current inhibition ratio” value ([2]; 30 μM, HEK293 cell line stably expressing hERG) was 31.67 ± 1.86% and the IC50 ([2]; HEK293 cell line stably expressing hERG, whole-cell membrane clamp, read-out: hERG semi-inhibiting concentration (IC50)) was > 30 µM. For the same molecule, the “inhibitory effect on hERG channel (in words)” value ([2]; conclusion of Test Example 3) was “no inhibitory effect on hERG channel”.

In the case of `O=C(O)c1ccc(-c2nnc(N3[C@@H]4CC[C@H]3C[C@@H](OCc3c(-c5c(Cl)cccc5Cl)noc3C3CC3)C4)o2)s1` [Example 11], the “Liver concentration of the compound” value ([1]; 10 mg/kg/d) is reported as 3,614.0 ± 1,961.3 ng/g, the concentration at 2 h [1, 3] is reported as 1590 ng/g and the concentration at 4 h [1, 3] is reported as 1520 ng/g. It also gave a concentration at 2 h [1, 4] of 5660 ng/g, a Kp at 2 h ([1]; 3 mg/kg/day, 3 mg/kg/d) of 3.9 ± 1.4 and a Kp at 4 h ([1]; 3 mg/kg/day, 3 mg/kg/d) of 6.2 ± 3.9. It also gave a Kp at 2 h ([1]; 10 mg/kg/day, 10 mg/kg/d) of 9.5 ± 9.1, a Kp at 4 h ([1]; 10 mg/kg/day, 10 mg/kg/d) of 15.5 ± 12.7 and a concentration at 2 h [1, 5] of 401 ± 98.4 ng/mL. It also gave a concentration at 4 h [1, 5] of 340 ± 253 ng/mL, a concentration at 2 h [1, 6] of 1160 ± 1040 ng/mL and a concentration at 4 h [1, 6] of 664 ± 739 ng/mL.

In the case of `Cc1cc(C(=O)O)ccc1-c1nnc(N2[C@@H]3CC[C@H]2C[C@@H](OCc2c(-c4c(Cl)cccc4Cl)noc2C2CC2)C3)o1` [Example 14], the “Liver concentration of the compound” value ([1]; 10 mg/kg/d) is reported as 5,093.6 ± 2,197.5 ng/g, the concentration at 2 h [1, 3] is reported as 1240 ng/g and the concentration at 4 h [1, 3] is reported as 1150 ng/g. For the same molecule, the concentration at 2 h [1, 4] was 7840 ng/g, the Kp at 2 h ([1]; 3 mg/kg/day, 3 mg/kg/d) was 7.4 ± 1.5 and the Kp at 4 h ([1]; 3 mg/kg/day, 3 mg/kg/d) was 7.1 ± 1.6. For the same molecule, the Kp at 2 h ([1]; 10 mg/kg/day, 10 mg/kg/d) was 21 ± 4.4, the Kp at 4 h ([1]; 10 mg/kg/day, 10 mg/kg/d) was 19.8 ± 7 and the concentration at 2 h [1, 5] was 168 ± 111 ng/mL. The concentration at 4 h [1, 5] was 172 ± 75.3 ng/mL, the concentration at 2 h [1, 6] was 402 ± 238 ng/mL and the concentration at 4 h [1, 6] was 250 ± 72.4 ng/mL.

`O=C(O)c1ccc(-c2nnc(N3[C@@H]4CC[C@H]3C[C@@H](OCc3c(-c5ccccc5OC(F)(F)F)noc3C3CC3)C4)o2)cc1` [Example 22, 4-(5-((1R,3r,5S)-3-((5-cyclopropyl-3-(2-(trifluoromethoxy)phenyl)isoxazol-4-yl)methoxy)-8-azabicyclo[3.2.1]octan-8-yl)-1,3,4-oxadiazol-2-yl)benzoic acid] showed a concentration at 2 h [1, 3] of 3760 ng/g, a concentration at 4 h [1, 3] of 3090 ng/g and a concentration at 2 h [1, 4] of 12300 ng/g. It also gave a concentration at 4 h [1, 4] of 9660 ng/g, a Kp at 2 h ([1]; 3 mg/kg/day, 3 mg/kg/d) of 16.1 ± 10.9 and a Kp at 4 h ([1]; 3 mg/kg/day, 3 mg/kg/d) of 14.4 ± 6.5. For the same molecule, the Kp at 2 h ([1]; 10 mg/kg/day, 10 mg/kg/d) was 14.2 ± 2.1, the Kp at 4 h ([1]; 10 mg/kg/day, 10 mg/kg/d) was 19.2 ± 6.9 and the concentration at 2 h [1, 5] was 440 ± 481 ng/mL. The concentration at 4 h [1, 5] was 278 ± 192 ng/mL, the concentration at 2 h [1, 6] was 903 ± 348 ng/mL and the concentration at 4 h [1, 6] was 567 ± 242 ng/mL.
